Key:
[1] = tested on: adenocarcinoma of the stomach, pancreas, and large bowel; details: combined FU and radiation vs radiation alone; cited from earlier work
P388/DDP = experiment: In vivo activity against P388/DDP leukemia with acquired resistance to NSC-119875; details: Days 1,5,9,13, NSC-119875 6.7 mg/kg, NSC-271674 20.0 mg/kg
Description: P388/DDP refers to a tumor line with acquired resistance to NSC119875.
(§1) Data are expressed as survival in days and as a percentage increase in […]

P388 leukemia = experiment: In vivo activity against P388 leukemia; details: Days 1,5,9,13, NSC-119875 6.7 mg/kg, NSC-271674 20.0 mg/kg
Description: as §1

L1210 [2] = experiment: In vitro growth inhibition of L1210 cells; assay type: cell-based, murine
Description: (§2) The ID50 refers to the concentration of test compound required to
(§3) inhibit the growth of either the L1210 or L1210/DDP (NSC119875) resistant

CD8F1 mammary = experiment: Mouse tumor panel: CD8F1 mammary (sc, tumor weight inhibition); assay type: in vivo; details: Q7DX5
Protocol: (§4) NSC-271674 Against a Panel of a Mouse Tumors
(§5) **Tumor weight inhibition assay.
(§6) Data are expressed as a percentage of the survival time in days or the
(§7) tumor weights in mg of the treated mice divided by the corresponding
(§8) values for the control mice. All testing was performed using both platinu
(§9) compounds in the same experiment. The criteria for activity are as
(§10) follows: confirmed activity (activity from two separate laboratories) of
(§11) % T/C of 150 or more for survival systems and 10% or less for tumor weigh
(§12) inhibition assays. Lower levels of activity such as a % T/C of 125 for
(§13) survival systems and 42% for tumor weight inhibition assays are considere
(§14) statistically significant.

L1210 [3] = experiment: Mouse tumor panel: L1210 (ip, survival time); assay type: in vivo; details: D1-9
Protocol: as §4
(§15) *Survival time (mean or median) assay
as §6, §7, §8, §9, §10, §11, §12, §13, §14

[4] = tested on: strains of murine leukemia; experiment: Activity against strains of murine leukemia resistant to NSC 119875 (general statement); details: mouse, in vivo
Lewis lung = experiment: Mouse tumor panel: Lewis lung (iv, survival time); assay type: in vivo; details: D1-9
Protocol: as §4, §15, §6, §7, §8, §9, §10, §11, §12, §13, §14

Colon #38 = experiment: Mouse tumor panel: Colon #38 (sc, tumor weight inhibition); assay type: in vivo; details: D2,9
Protocol: as §4, §5, §6, §7, §8, §9, §10, §11, §12, §13, §14

B16 melanoma = experiment: Mouse tumor panel: B16 melanoma (ip, survival time); assay type: in vivo; details: D1-9
Protocol: as §4, §15, §6, §7, §8, §9, §10, §11, §12, §13, §14

L1210/DDP = experiment: In vitro growth inhibition of L1210/DDP (NSC-119875 resistant) cells; assay type: cell-based, murine
Description: as §2, §3

[5] = Renal Toxicity Screening Protocol, toxicity compared to NSC-119875; assay type: in vivo

SMILES: O=c1[nH]cc(F)c(=O)[nH]1 [5-FU, 5-fluorouracil]
- mean survival times (in words) [1]: significantly increased

SMILES: N.N.[Cl][Pt][Cl] [NSC-119875, cisdichlorodiamino platinum II, reference compound]
- % ILS (P388/DDP): 41%
- Survival (P388/DDP): 15.5 days
- % ILS (P388 leukemia): 145%
- Survival (P388 leukemia): 32.6 days
- ID50 (concentration required to inhibit the growth of cells by 50 percent) (L1210 [2]): 0.05 µg/mL
- % T/C (tumor weight) at optimal dose (CD8F1 mammary; CD8F1 first line, optimal dose NSC-119875 8, NSC-271674 6.25 mg/kg/inj): 0%
- % T/C (tumor weight) at optimal dose (CD8F1 mammary; CD8F1 second line, optimal dose NSC-119875 8, NSC-271674 25 mg/kg/inj): 0%
- % T/C (survival time) at optimal dose (L1210 [3]; L1210 first line, optimal dose NSC-119875 2, NSC-271674 0.78 mg/kg/inj): 151%
- % T/C (survival time) at optimal dose (L1210 [3]; L1210 second line, optimal dose NSC-119875 2, NSC-271674 1.56 mg/kg/inj): 182%
- activity against NSC 119875-exhausted strains (in words) [4]: has exhausted its activity
- % T/C (survival time) at optimal dose (Lewis lung; Lewis lung first line, optimal dose NSC-119875 2, NSC-271674 3.12 mg/kg/inj): 135%
- % T/C (survival time) at optimal dose (Lewis lung; Lewis lung second line, optimal dose NSC-119875 2, NSC-271674 6.25 mg/kg/inj): 177%
- % T/C (tumor weight) at optimal dose (Colon #38; Colon #38 first line, optimal dose NSC-119875 8, NSC-271674 12.5 mg/kg/inj): 42%
- % T/C (tumor weight) at optimal dose (Colon #38; Colon #38 second line, optimal dose NSC-119875 16, NSC-271674 50 mg/kg/inj): 11%
- % T/C (survival time) at optimal dose (B16 melanoma; B16 first line, optimal dose NSC-119875 2, NSC-271674 6.25 mg/kg/inj): 193%
- % T/C (survival time) at optimal dose (B16 melanoma; B16 second line, optimal dose NSC-119875 1, NSC-271674 1.56 mg/kg/inj): 166%
- ID50 (concentration required to inhibit the growth of cells by 50 percent) (L1210/DDP): 2.50 µg/mL

SMILES: N.N.O=C([O-])C1(C(=O)[O-])CCC1.[Pt+2] [NSC-241240, diamine [1,1cyclobutanedicarboxylato (2)0,0']platinum]
- Body Weight Loss score ([5]; relative to NSC-119875): 1
- Clinical Chemistry - Blood Urea Nitrogen score ([5]; relative to NSC-119875): 1
- Clinical Chemistry - Creatinine score ([5]; relative to NSC-119875): 1
- Clinical Chemistry - Serum Glutamic Pyruvic Transaminase score ([5]; relative to NSC-119875): 3
- Hematology - Hematocrit score ([5]; relative to NSC-119875): 4
- Hematology - White Blood Cell score ([5]; relative to NSC-119875): 3
- Histopathology - Gastrointestinal score ([5]; relative to NSC-119875): 1
- Histopathology - Hematopoietic score ([5]; relative to NSC-119875): 5
- Histopathology - Lymphatic score ([5]; relative to NSC-119875): 1
- Histopathology - Renal score ([5]; relative to NSC-119875): 1
- TOTAL SCORE ([5]; sum of the ten scores): 21
